From DBAASP
Values after ≈ are worked out from the molar mass of the structure shown. One block for each molecule: values may come before it.

Columns and labels:
Experiment in all cases: ≥ marks a high value that may be exact or a test limit, other limits are often not marked, values filed in µg/mL are converted to µM
[1] = system: Candida albicans ATCC 2002
[2] = system: Pseudomonas aeruginosa ATCC 27853
[3] = system: Escherichia coli ATCC 25922
[4] = system: Enterococcus faecalis ATCC 29212
[5] = system: Pseudomonas aeruginosa CMCCB 1010
[6] = system: Candida parapsilosis ATCC 22019
Escherichia coli IS117# = system: Escherichia coli IS117#
Shigella dysenteriae = system: Shigella dysenteriae
[7] = system: Staphylococcus aureus ATCC 25923
[8] = system: Pseudomonas aeruginosa IS350#
Escherichia coli IS37# = system: Escherichia coli IS37#
[9] = system: Candida albicans ATCC 90028
[10] = system: Enterobacter cloacae ATCC 13047
[11] = system: Klebsiella pneumoniae ATCC 700603
Escherichia coli IS218# = system: Escherichia coli IS218#
[12] = system: Pseudomonas aeruginosa Ps4
[13] = system: Pseudomonas aeruginosa Ps1
[14] = system: Pseudomonas aeruginosa Ps21
[15] = system: Pseudomonas aeruginosa PAOLC1-6
[16] = system: Pseudomonas aeruginosa TNP004
[17] = system: Pseudomonas aeruginosa Ps2
[18] = system: Pseudomonas aeruginosa Ps6
[19] = system: Pseudomonas aeruginosa Ps74
[20] = system: Pseudomonas aeruginosa PAO1
[21] = system: Pseudomonas aeruginosa Ps64
[22] = system: Pseudomonas aeruginosa Ps71
[23] = system: Staphylococcus aureus ATCC 33591
[24] = system: Enterococcus faecium ATCC 700221
[25] = system: Pseudomonas aeruginosa KCTC 1637
[26] = system: Staphylococcus epidermidis KCTC 3096
[27] = system: Candida albicans TIMM 1768
[28] = system: Trichosporon beigelii KCTC 7707
[29] = system: Salmonella typhimurium KCTC 1926
[30] = system: Bacillus subtilis KCTC 1918
[31] = system: Escherichia coli BW25113 ΔsbmA
Escherichia coli BW25113 = system: Escherichia coli BW25113
[32] = system: Escherichia coli BW25113 ΔwaaG
[33] = system: Pseudomonas putida NCIM 2102
[34] = system: Staphylococcus aureus PEP 4/3
Bacillus subtilis = system: Bacillus subtilis
Escherichia coli W160-37 = system: Escherichia coli W160-37

SMILES: CC[C@H](C)[C@@H]1NC(=O)[C@H](C)NC(=O)[C@@H](NC(=O)[C@H](Cc2ccccc2)NC(=O)[C@@H](NC(=O)[C@@H](NC(=O)[C@@H]2CCCN2C(=O)[C@@H](NC(=O)[C@@H](NC(=O)[C@H](CCCCN)NC(=O)CNC(=O)[C@H](CO)NC(=O)[C@@H](NC(=O)[C@H](CS)NC(=O)[C@H](CCC(=O)O)NC(=O)[C@H](CC(C)C)NC(=O)CNC(=O)[C@@H]2CCCN2C(=O)[C@H](CC(C)C)NC(=O)[C@@H](N)Cc2ccccc2)C(C)C)[C@@H](C)CC)C(C)C)[C@@H](C)O)C(C)C)CSSC[C@@H](C(=O)O)NC(=O)[C@H]([C@@H](C)CC)NC(=O)[C@H](CCCN=C(N)N)NC(=O)[C@H]([C@@H](C)O)NC1=O [FLPGLECVSGKIVPTVFCAITRIC]
MIC [1]: 1.95 µM (≈ 5 µg/mL)
MIC [2]: 7.79 µM (≈ 20 µg/mL)
MIC [3]: 0.974 µM (≈ 2.5 µg/mL)
MIC [4]: 3.9 µM (≈ 9.99 µg/mL)
MIC [5]: 1.95 µM (≈ 5 µg/mL)
MIC [6]: 3.9 µM (≈ 9.99 µg/mL)
MIC (Escherichia coli IS117#): 3.9 µM (≈ 9.99 µg/mL)
MIC (Shigella dysenteriae): 3.9 µM (≈ 9.99 µg/mL)
MIC [7]: 1.95 µM (≈ 5 µg/mL)
MIC [8]: 7.79 µM (≈ 20 µg/mL)
MIC (Escherichia coli IS37#): 7.79 µM (≈ 20 µg/mL)
MIC [9]: 3.9 µM (≈ 9.99 µg/mL)
MIC [10]: 3.9 µM (≈ 9.99 µg/mL)
MIC [11]: 1.95 µM (≈ 5 µg/mL)
MIC (Escherichia coli IS218#): 7.79 µM (≈ 20 µg/mL)

SMILES: CC[C@H](C)[C@H](NC(=O)[C@H](CCCN=C(N)N)NC(=O)[C@@H](N)CCCN=C(N)N)C(=O)N[C@@H](CCCN=C(N)N)C(=O)N1CCC[C@H]1C(=O)N[C@@H](CCCN=C(N)N)C(=O)N1CCC[C@H]1C(=O)N1CCC[C@H]1C(=O)N[C@@H](CCCN=C(N)N)C(=O)N[C@@H](CC(C)C)C(=O)N1CCC[C@H]1C(=O)N[C@@H](CCCN=C(N)N)C(=O)N1CCC[C@H]1C(=O)N[C@@H](CCCN=C(N)N)C(=O)N1CCC[C@H]1C(=O)N[C@@H](CCCN=C(N)N)C(=O)N1CCC[C@H]1C(=O)N[C@@H](CC(C)C)C(=O)N1CCC[C@H]1C(=O)N[C@@H](Cc1ccc(O)cc1)C(=O)N1CCC[C@H]1C(=O)N[C@@H](CCCN=C(N)N)C(=O)N1CCC[C@H]1C(=O)O [RRIRPRPPRLPRPRPRPLPYPRP]
MIC [31]: 8 µM (≈ 23.2 µg/mL)
MIC [3]: 1 µM (≈ 2.9 µg/mL)
MIC (Escherichia coli BW25113): 1 µM (≈ 2.9 µg/mL)
MIC [32]: 0.5 µM (≈ 1.45 µg/mL)

SMILES: CC[C@H](C)[C@H](NC(=O)[C@H](Cc1c[nH]c2ccccc12)NC(=O)[C@H](CCCCN)NC(=O)[C@H](CO)NC(=O)[C@H](CC(C)C)NC(=O)[C@H](Cc1ccccc1)NC(=O)[C@@H](NC(=O)[C@H](CCC(=O)O)NC(=O)[C@H](CC(C)C)NC(=O)[C@H](CC(C)C)NC(=O)[C@H](CCCCN)NC(=O)[C@@H]1CCCN1C(=O)[C@H](CC(N)=O)NC(=O)[C@H](C)NC(=O)[C@H](CC(C)C)NC(=O)[C@H](CCCN=C(N)N)NC(=O)[C@H](CC(N)=O)NC(=O)[C@H](C)NC(=O)[C@H](CC(C)C)NC(=O)[C@H](CCCCN)NC(=O)[C@H](C)NC(=O)[C@H](Cc1ccc(O)cc1)NC(=O)[C@H](CCCN=C(N)N)NC(=O)[C@H](CO)NC(=O)[C@H](CC(C)C)NC(=O)[C@@H](N)CO)[C@@H](C)O)C(=O)NCC(=O)O [SLSRYAKLANRLANPKLLETFLSKWIG]
MIC [33]: 17.7 µM (≈ 54.8 µg/mL)
MIC [34]: 14.5 µM (≈ 44.7 µg/mL)
MIC (Bacillus subtilis): 4.58 µM (≈ 14.1 µg/mL)
MIC (Escherichia coli W160-37): 4.58 µM (≈ 14.1 µg/mL)

Results, then the molecule that gave them:

MIC [12]: ≥ 47.7 µM
MIC [13]: ≥ 34.3 µM
MIC [14]: ≥ 135 µM
MIC [15]: ≥ 34.3 µM
MIC [16]: ≥ 34.3 µM
MIC [17]: ≥ 135 µM
MIC [18]: ≥ 34.3 µM
MIC [19]: ≥ 135 µM
MIC [20]: 34.3 µM (≈ 44.9 µg/mL)
MIC [21]: ≥ 135 µM
MIC [22]: ≥ 34.3 µM
SMILES: NC(=O)[C@H](CCCN=C(N)N)NC(=O)[C@H](CCCN=C(N)N)NC(=O)[C@H](Cc1c[nH]c2ccccc12)NC(=O)[C@H](Cc1ccccc1)NC(=O)[C@H](CCCN=C(N)N)NC(=O)[C@H](CCCN=C(N)N)NC(=O)[C@H](Cc1c[nH]c2ccccc12)NC(=O)[C@@H](N)Cc1ccccc1 [FWRRFWRR]

MIC [2]: 12.5 µM (≈ 21.8 µg/mL)
MIC [3]: 6.3 µM (≈ 11 µg/mL)
MIC [23]: 3.1 µM (≈ 5.4 µg/mL)
MIC [24]: 1.6 µM (≈ 2.79 µg/mL)
SMILES: CC[C@H](C)[C@H](NC(=O)[C@H](CCCCN)NC(=O)[C@H](CCCCN)NC(=O)[C@H](CC(C)C)NC(=O)[C@H](CC(C)C)NC(=O)[C@H](CCCCN)NC(=O)[C@H](CCCCN)NC(=O)[C@@H](NC(=O)[C@@H](NC(=O)[C@H](CC(=O)O)NC(=O)[C@H](Cc1ccccc1)NC(=O)[C@H](CC(C)C)NC(=O)CN)C(C)C)[C@@H](C)CC)C(=O)NCC(=O)NCC(=O)N[C@@H](CC(C)C)C(N)=O [GLFDVIKKLLKKIGGL]

MIC [25]: 3.12 µM (≈ 4.95 µg/mL)
MIC [26]: 12.5 µM (≈ 19.8 µg/mL)
MIC [27]: 25 µM (≈ 39.7 µg/mL)
MIC [28]: 25 µM (≈ 39.7 µg/mL)
MIC [29]: 2.21 µM (≈ 3.5 µg/mL)
MIC [30]: 6.25 µM (≈ 9.91 µg/mL)
SMILES: CC(C)C[C@H](NC(=O)[C@H](Cc1ccccc1)NC(=O)[C@H](CCCCN)NC(=O)[C@@H]1CCCN1C(=O)[C@H](CCCCN)NC(=O)[C@H](CCCCN)NC(=O)[C@H](CCCCN)NC(=O)[C@H](CCCCN)NC(=O)[C@H](CCCCN)NC(=O)[C@H](CCCCN)NC(=O)[C@H](Cc1c[nH]c2ccccc12)NC(=O)[C@@H](N)CCCCN)C(N)=O [KWKKKKKKPKFL]
